Test results from US5998362A, “Conjugates useful in the treatment of prostate cancer” (priority 1997, dated 1999).
Where a SMILES comes first, the peptide text is derived from it. [ ]: non-standard residue; d: D form. The star is where a group is joined. X2 = COCCOCCOCCOCCOCCOCCOCCOCCOCCOCCOCCOCCOCCOCCOCCOCCOCC(=O)*; X5 = COCCOCCOCCOCCOCCOCCOCCOCCOCCOCCOCCOCCOCCOCCOCCOCC(=O)*; X6 = COCCOCCOCCOCCOCCOCCOCCOCCOCCOCCOCCOCCOCCOCCOCC(=O)*; Decanoyl(3,6,9-trioxa) = COCCOCCOCC(=O)*; Glyceroyl(2S) = O=C([C@@H](O)CO)*; hArg = N=C(N)NCCCC[C@H](N)C(=O)O; 3Pal = N[C@@H](Cc1cccnc1)C(=O)O; MeOCH2CH2OCH2CO = COCCOCC(=O)*; X4 = O=C([C@H](O)[C@@H](O)CO)*; Chg = N[C@H](C(=O)O)C1CCCCC1; hSer = N[C@@H](CCO)C(=O)O; Nle = CCCC[C@H](N)C(=O)O; Glycolyl = O=C(CO)*; X3 = O=C(C(O)CO)*

target: free PSA (Homo sapiens, UniProt P07288); test: Recognition of oligopeptides by free PSA (time to 50% cleavage, HPLC); details: Table 2, oligopeptides; 4 hours
Sequence (P07288 25-261): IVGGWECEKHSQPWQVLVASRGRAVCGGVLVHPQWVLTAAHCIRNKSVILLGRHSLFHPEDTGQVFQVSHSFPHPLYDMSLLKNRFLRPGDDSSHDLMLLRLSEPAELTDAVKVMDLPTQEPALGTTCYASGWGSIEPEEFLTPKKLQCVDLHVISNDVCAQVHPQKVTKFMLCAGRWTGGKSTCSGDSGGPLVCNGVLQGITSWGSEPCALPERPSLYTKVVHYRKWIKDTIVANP
Protocol: The oligopeptides prepared as described in Example 1 were individually dissolved in PSA digestion buffer (12 mM tris(hydroxymethyl)-aminomethane pH8.0, 25 mM NaCl, 0.5 mM CaCl2) and the solution added to PSA at a molar ration of 100 to 1. The reaction is quenched after various reaction times by the addition of trifluoroacetic acid (TFA) to a final 1% (volume/volume). The quenched reaction was analyzed by HPLC on a reversed-phase C18 column using an aqueous 0.1% TFA/acetonitrile gradient. […] Oligopeptides containing free amine moieties (ie. comprising hArg, Orn, Lys and or 3PAL) were tested as TFA salts. All other oligopeptides were tested as neutral compounds.

For `CC(C)C[C@H](NC(=O)[C@H](CO)NC(=O)[C@H](CCC(N)=O)NC(=O)[C@@H](NC(=O)[C@H](CCCCNC(=N)N)NC(=O)[C@@H](N)CO)C1CCCCC1)C(=O)O` [ShRChgQ-SL -acid] (H-S[hArg][Chg]QSL-OH), the “Substrate cleavage by York PSA at 4 HOUR” value was 8%.

same assay, conditions: Table 2, oligopeptides; PSA digestion buffer 12 mM Tris pH8.0, 25 mM NaCl, 0.5 mM CaCl2; substrate:PSA 100 to 1

Point of comparison: `CC(C)C[C@H](NC(=O)[C@H](CO)NC(=O)[C@H](CCC(N)=O)NC(=O)[C@@H](NC(=O)[C@H](CO)NC(=O)[C@H](CO)NC(=O)[C@H](CO)NC(=O)[C@@H](O)CO)C1CCCCC1)C(=O)O` [(I)2,3-dihydroxypropionyl-SSSChgQ-SL-acid] ({Glyceroyl(2S)}-SSS[Chg]QSL-OH), “Time to 50% Substrate Cleavage by York PSA” value 110 min. Against it:
- COCCOCCOCCOCCOCCOCCOCCOCCOCCOCCOCCOCCOCCOCCOCCOCCOCCOCC(=O)N[C@@H](CO)C(=O)N[C@@H](CCCCNC(=N)N)C(=O)N[C@@H](Cc1ccc(O)cc1)C(=O)N[C@@H](CCC(N)=O)C(=O)N[C@@H](CO)C(=O)N[C@@H](CC(C)C)C(=O)O [PEG(17)-ShRYQ-SL-acid] — 2-fold lower, 55 min
- PEG(4)-β-PAL-SSChgQ-SL-acid — 1.8-fold lower, 60 min

same assay, conditions: Table 2, oligopeptides; abbreviations not defined

In the case of `CCCC[C@H](NC(=O)[C@H](CO)NC(=O)[C@H](CCC(N)=O)NC(=O)[C@@H](NC(=O)[C@H](CCCCNC(=N)N)NC(=O)[C@H](CO)NC(C)=O)C1CCCCC1)C(=O)O` [Ac-ShRChgQ-SNle-acid] (Ac-S[hArg][Chg]QS[Nle]-OH), the “Solubility remark in the cleavage column (INSOLUBLE / PS / PP)” value was “INSOLUBLE”.

same assay, conditions: free psa

Point of comparison: `CC(=O)N[C@@H](CCCCNC(=N)N)C(=O)N[C@@H](CO)C(=O)N[C@@H](CO)C(=O)N[C@H](C(=O)N[C@@H](CCC(N)=O)C(=O)N[C@@H](CO)C(=O)N[C@@H](CC(C)C)C(=O)O)C1CCCCC1` [AChRSSChgQ-SL-acid] (Ac-[hArg]SS[Chg]QSL-OH), “Time to 50% Substrate Cleavage by York PSA (Min), values marked *” value 45 min. Against it:
- CC(C)C[C@H](NC(=O)[C@H](CO)NC(=O)[C@H](CCC(N)=O)NC(=O)[C@H](Cc1ccc(O)cc1)NC(=O)[C@H](CCCCNC(=N)N)NC(=O)CO)C(=O)O [2-hydroxyacetylhRYQ-SL-acid] (Glycolyl-[hArg]YQSL-OH) — 2.3-fold higher, 105 min
- CC(C)C[C@H](NC(=O)[C@H](CO)NC(=O)[C@H](CCC(N)=O)NC(=O)[C@@H](NC(=O)[C@H](CO)NC(=O)[C@H](CO)NC(=O)[C@H](CCCCNC(=N)N)NC(=O)[C@@H](O)CO)C1CCCCC1)C(=O)O [2(S)2,3-dihydroxypropionly-hRSSChgQ-SL-acid] ({Glyceroyl(2S)}-[hArg]SS[Chg]QSL-OH) — 1.8-fold lower, 25 min
- COCCOCCOCC(=O)N[C@@H](CO)C(=O)N[C@@H](CCCCNC(=N)N)C(=O)N[C@@H](Cc1ccc(O)cc1)C(=O)N[C@@H](CCC(N)=O)C(=O)N[C@@H](CO)C(=O)N[C@@H](CC(C)C)C(=O)O [PEG(2)-ShRYQ-SL-acid] ({Decanoyl(3,6,9-trioxa)}-S[hArg]YQSL-OH) — within 1.5-fold, 35 min

same assay, conditions: free psa, pH 8

Point of comparison: `CC(=O)N[C@@H](CCCCNC(=N)N)C(=O)N[C@@H](CO)C(=O)N[C@@H](CO)C(=O)N[C@H](C(=O)N[C@@H](CCC(N)=O)C(=O)N[C@@H](CO)C(=O)N[C@@H](CC(C)C)C(=O)O)C1CCCCC1` [AChRSSChgQ-SL-acid] (Ac-[hArg]SS[Chg]QSL-OH), “Time to 50% Substrate Cleavage by York PSA” value 120 min. Against it:
- CC(C)C[C@H](NC(=O)[C@H](CO)NC(=O)[C@H](CCC(N)=O)NC(=O)[C@@H](NC(=O)[C@H](CO)NC(=O)[C@H](CO)NC(=O)CNC(=O)C(O)CO)C1CCCCC1)C(=O)O (stereo partly shown) [2,3-dihydroxypropionyl-GSSChgQ-SL-acid] (X3-GSS[Chg]QSL-OH) — within 1.5-fold, 160 min
- COCCOCCOCCOCCOCCOCCOCCOCCOCCOCCOCCOCCOCCOCCOCC(=O)N[C@@H](CO)C(=O)N[C@@H](CCCCNC(=N)N)C(=O)N[C@@H](Cc1ccc(O)cc1)C(=O)N[C@@H](CCC(N)=O)C(=O)N[C@@H](CO)C(=O)N[C@@H](CC(C)C)C(=O)O [PEG(14)ShRYQ-SL-acid] (X6-S[hArg]YQSL-OH) — 3-fold lower, 40 min
- COCCOCCOCCOCCOCCOCCOCCOCCOCCOCCOCCOCCOCCOCCOCCOCC(=O)N[C@@H](CO)C(=O)N[C@@H](CCCCNC(=N)N)C(=O)N[C@@H](Cc1ccc(O)cc1)C(=O)N[C@@H](CCC(N)=O)C(=O)N[C@@H](CO)C(=O)N[C@@H](CC(C)C)C(=O)O [PEG(15)-ShRYQ-SL-acid] (X5-S[hArg]YQSL-OH) — 3-fold lower, 40 min
- CC(C)C[C@H](NC(=O)[C@H](CO)NC(=O)[C@H](CCC(N)=O)NC(=O)[C@@H](NC(=O)[C@H](CO)NC(=O)[C@H](CO)NC(=O)[C@H](CO)NC(=O)[C@@H](O)CO)C1CCCCC1)C(=O)O [(I)2,3-dihydroxypropionyl-SSSChgQ-SL-acid] ({Glyceroyl(2S)}-SSS[Chg]QSL-OH) — 1.5-fold lower, 80 min
- COCCOCCOCCOCCOCCOCCOCCOCCOCCOCCOCCOCCOCCOCCOCCOCCOCCOCCOCC(=O)N[C@@H](CO)C(=O)N[C@@H](CCCCNC(=N)N)C(=O)N[C@@H](Cc1ccc(O)cc1)C(=O)N[C@@H](CCC(N)=O)C(=O)N[C@@H](CO)C(=O)N[C@@H](CC(C)C)C(=O)O [PEG(18)ShRYQ-SL-acid] — 3-fold lower, 40 min
- CC(C)C[C@H](NC(=O)[C@H](CO)NC(=O)[C@H](CCC(N)=O)NC(=O)[C@@H](NC(=O)[C@H](CO)NC(=O)[C@H](CO)NC(=O)[C@H](Cc1cccnc1)NC(=O)[C@@H](O)CO)C1CCCCC1)C(=O)O [(I)2,3-dihydroxypropionyl-3PAL-SSChgQ-SL-acid] ({Glyceroyl(2S)}-[3Pal]SS[Chg]QSL-OH) — 1.7-fold lower, 70 min
- COCCOCC(=O)N[C@@H](CO)C(=O)N[C@@H](CCCCNC(=N)N)C(=O)N[C@@H](Cc1ccc(O)cc1)C(=O)N[C@@H](CCC(N)=O)C(=O)N[C@@H](CO)C(=O)N[C@@H](CC(C)C)C(=O)O [PEG(1)-ShRYQ-SL-acid] (MeOCH2CH2OCH2CO-S[hArg]YQSL-OH) — within 1.5-fold, 90 min
- CC(C)C[C@H](NC(=O)[C@H](CO)NC(=O)[C@H](CCC(N)=O)NC(=O)[C@@H](NC(=O)[C@H](CO)NC(=O)[C@H](CO)NC(=O)CO)C1CCCCC1)C(=O)O [2-hydroxyacetyl-SSChgQ-SL-acid] (Glycolyl-SS[Chg]QSL-OH) — 1.5-fold higher, 180 min
- COCCOCCOCCOCCOCCOCCOCCOCCOCCOCCOCCOCCOCCOCCOCCOCCOCC(=O)N[C@@H](CO)C(=O)N[C@@H](CCCCNC(=N)N)C(=O)N[C@@H](Cc1ccc(O)cc1)C(=O)N[C@@H](CCC(N)=O)C(=O)N[C@@H](CO)C(=O)N[C@@H](CC(C)C)C(=O)O [PEG(16)-ShRYQ-SL-acid] (X2-S[hArg]YQSL-OH) — 3-fold lower, 40 min
- COCCOCCOCC(=O)N[C@@H](Cc1cccnc1)C(=O)N[C@@H](CO)C(=O)N[C@@H](CO)C(=O)N[C@H](C(=O)N[C@@H](CCC(N)=O)C(=O)N[C@@H](CO)C(=O)N[C@@H](CC(C)C)C(=O)O)C1CCCCC1 [PEG(2)-3PAL-SSChgQ-SL-acid] ({Decanoyl(3,6,9-trioxa)}-[3Pal]SS[Chg]QSL-OH) — 1.5-fold lower, 80 min
- COCCOCC(=O)N[C@@H](CCCCNC(=N)N)C(=O)N[C@@H](CO)C(=O)N[C@@H](CO)C(=O)N[C@H](C(=O)N[C@@H](CCC(N)=O)C(=O)N[C@@H](CO)C(=O)N[C@@H](CC(C)C)C(=O)O)C1CCCCC1 [PEG(1)-hRSSChgQ-SL-acid] (MeOCH2CH2OCH2CO-[hArg]SS[Chg]QSL-OH) — 4-fold lower, 30 min
- CCCC[C@H](NC(=O)[C@H](CO)NC(=O)[C@H](CCC(N)=O)NC(=O)[C@H](Cc1ccc(O)cc1)NC(=O)[C@H](CO)NC(=O)[C@H](CO)NC(=O)[C@H](CCCCNC(=N)N)NC(=O)CO)C(=O)O [2-hydroxyacetyl-hRSSYQ-SNle-acid] (Glycolyl-[hArg]SSYQS[Nle]-OH) — 2.7-fold lower, 45 min
- COCCOCCOCC(=O)N[C@@H](CO)C(=O)N[C@@H](CCCCNC(=N)N)C(=O)N[C@H](C(=O)N[C@@H](CCC(N)=O)C(=O)N[C@@H](CO)C(=O)N[C@@H](CC(C)C)C(=O)O)C1CCCCC1 [PEG(2)-S-hRChgQ-SL-acid] ({Decanoyl(3,6,9-trioxa)}-S[hArg][Chg]QSL-OH) — 4-fold lower, 30 min
- CC(C)C[C@H](NC(=O)[C@H](CO)NC(=O)[C@H](CCC(N)=O)NC(=O)[C@@H](NC(=O)[C@H](CCCCNC(=N)N)NC(=O)[C@H](CO)NC(=O)[C@H](O)[C@@H](O)CO)C1CCCCC1)C(=O)O [(2R,3S)2,3,4-trihydroxybutanoyl-ShRChgQ-SL-acid] (X4-S[hArg][Chg]QSL-OH) — within 1.5-fold, 90 min
- COCCOCCOCCOCCOCCOCCOCCOCCOCCOCCOCCOCCOCCOCCOCCOCCOCCOCCOCCOCC(=O)N[C@@H](CO)C(=O)N[C@@H](CCCCNC(=N)N)C(=O)N[C@@H](Cc1ccc(O)cc1)C(=O)N[C@@H](CCC(N)=O)C(=O)N[C@@H](CO)C(=O)N[C@@H](CC(C)C)C(=O)O [PEG(19)ShRYQ-SL-acid] — 2-fold lower, 60 min
- CC(C)C[C@H](NC(=O)[C@H](CO)NC(=O)[C@H](CCC(N)=O)NC(=O)[C@@H](NC(=O)[C@H](CCCCNC(=N)N)NC(=O)[C@H](CO)NC(=O)C(O)CO)C1CCCCC1)C(=O)O (stereo partly shown) [2,3-dihydroxypropionylShRChgQ-SL-acid] (X3-S[hArg][Chg]QSL-OH) — 1.6-fold lower, 75 min
- CC(C)C[C@H](NC(=O)[C@H](CO)NC(=O)[C@H](CCC(N)=O)NC(=O)[C@@H](NC(=O)[C@H](CO)NC(=O)[C@H](CO)NC(=O)[C@H](CCO)NC(=O)C(O)CO)C1CCCCC1)C(=O)O (stereo partly shown) [2,3-dihydroxypropionyl-hSSSChgQ-SL-acid] (X3-[hSer]SS[Chg]QSL-OH) — within 1.5-fold, 160 min
- COCCOCCOCC(=O)N[C@@H](CO)C(=O)N[C@@H](CO)C(=O)N[C@@H](Cc1ccc(O)cc1)C(=O)N[C@@H](CCC(N)=O)C(=O)N[C@@H](CO)C(=O)N[C@@H](CC(C)C)C(=O)O [PEG(2)-SSYQ-SL-acid] ({Decanoyl(3,6,9-trioxa)}-SSYQSL-OH) — within 1.5-fold, 150 min
